Test results as given in PMC6789456, “Ursolic Acid Derivatives as Potential Agents Against Acanthamoeba Spp” (Pathogens, 2019).

Experiments:
[1] = test system: Acanthamoeba castellanii Neff; assay: In vitro effect against the trophozoite stage, Alamar Blue assay; type: cell-based; details: for IC50: trophozoites, Alamar blue, 96 h, mean ± SD; for IC90: concentration used in the double-stain assay, A. castellanii Neff trophozoites
Procedure: (§1) The anti-Acanthamoeba activity of molecules was evaluated against the Acanthamoeba castellanii Neff (ATCC 30010) type strain from the American Type Culture Collection and Acanthamoeba griffini obtained in previous studies. Those strains were grown axenically in Peptone Yeast Glucose (PYG) medium (0.75% (w/v) proteose peptone, 0.75% (w/v) yeast extract, and 1.5% (w/v) glucose) containing 40 μg of gentamicin ml−1 (Biochrom AG, Cultek, Granollers, Barcelona, Spain).
(§2) The anti-Acanthamoeba activities of the compounds were determined by the Alamar Blue assay as previously described. Briefly, Acanthamoeba strains were seeded in duplicate on a 96-well microtiter plate with 50 μL from a stock solution of 10^4 cells mL^−1. Amoebae were allowed to adhere for 15 min and 50 μL of serial dilution series of the eye drop solution was added. Finally, the Alamar Blue assay reagent (Bioresource, Europe, Nivelles, Belgium) was added into each well at an amount equal to 10% of the medium volume. The plates were then incubated for 96 h at 28 °C with a slight agitation and the emitted fluorescence was measured with an Enspire microplate reader (PerkinElmer, Massachusetts, USA) at 570/585 nm.

[2] = test system: Acanthamoeba griffini; assay: as above; type: cell-based; details: 96 h, trophozoites, mean ± SD
Procedure: as §1, §2

[3] = Cytotoxicity, Alamar Blue assay; type: cell-based; details: mouse, J774.A1 macrophage cell line (ATCC TIB-67), J774.A1, 24 h, mean ± SD, >100 if inhibition did not reach 50% at the highest concentration, read-out: Murine Macrophages CC50
Procedure: Cytotoxicity of the selected compounds was evaluated after 24 h incubation of murine macrophage J774.A1 cell line (ATCC # TIB-67) with different concentrations of the tested compounds at 37 °C in a 5% CO2 humidified incubator. The viability of the macrophages was determined with the Alamar Blue assay as previously described.

[4] = test system: Acanthamoeba spp. cysts; assay: In vitro effect against the cyst stage, Alamar Blue assay; type: cell-based; details: both strains, viability of cysts
Procedure: The cysticidal activity was determined by the Alamar Blue assay at 144 h and confirmed visually by inverted microscopy. Cysts of both strains were prepared as described by Lorenzo-Morales et al. (2008). Briefly, trophozoite were transferred from PYG medium based cultures (trophozoite medium) to Neff´s encystment medium (NEM; 0.1 M KCl, 8 mM MgSO4·7H2O, 0.4 mM CaCl2·2H2O, 1 mM NaHCO3, and 20 mM ammediol (2-amino-2-methyl-1,3-propanediol; Sigma Aldrich Chemistry Ltd., Madrid, Spain), pH 8.8, at 25 °C) and were cultured in this medium with gentle shaking for a week in order to obtain mature cysts. After that, mature cysts were harvested and washed twice using the PYG medium.
A serial dilution of the tested molecules was made in PYG. The in vitro susceptibility assay was performed in sterile 96-well microtiter plates (Corning™). To these wells the drug concentration to be tested and 5 × 10^4 mature cysts of Acanthamoeba/ml were added. The final volume was 100 μL in each well. After 7 days of incubation with the drugs, the plate was centrifuged at 3000 rpm for 10 min. […] Finally, 10 μL of the Alamar Blue assay reagent (Biosource, Europe, Nivelles, Belgium) was placed into each well, and the plates were then incubated for 144 h at 28 °C with slight agitation and the emitted fluorescence was periodically examined with an Enspire microplate reader (PerkinElmer, Waltham, MA, USA) at 570/585 nm.

[5] = test system: Acanthamoeba castellanii Neff trophozoite; assay: Double-stain assay (Hoechst 33342/PI) for programmed cell death; type: cell-based; details: treated with IC90, 24 h; for Propidium Iodide (PI) stain: data not shown
Procedure: A double-stain apoptosis detection kit (Hoechst 33342/PI; GenScript, Piscataway, NJ, USA) and an inverted confocal microscope (Leica DMI 4000B) were used. The experiment was carried out by following the manufacturer’s recommendations, and 10^5 cells/well were incubated in a 24-well plate for 24 h with the previously calculated IC90. The double-staining pattern allows the identification of three groups in a cellular population: Live cells will show only a low level of fluorescence, cells undergoing PCD will show a higher level of blue fluorescence (as chromatin condenses), and dead cells will show low-blue and high-red fluorescence (as the propidium iodide stain enters the nucleus).

[6] = test system: murine macrophage J774.A1 cell line; assay: Cytotoxicity, Alamar Blue assay; type: cell-based; details: 50 µM, J774A.1, inverted microscopy, compared to 1
[7] = test system: Acanthamoeba castellanii Neff; assay: Mitochondrial membrane potential, JC-1; type: cell-based; details: treated with IC90, 24 h; for decrease of mitochondrial membrane potential (ΔΨm): ratio of fluorescence 590/530 nm
Procedure: The collapse of an electrochemical gradient across the mitochondrial membrane during apoptosis was detected with the JC-1 mitochondrial membrane potential detection kit (Cell Technology). After being treated with IC90 of the test solution for 24 h, the cells were centrifuged (1000 r.p.m. × 10 min) and resuspended in JC-1 buffer. After that, 100 µL of each treated culture was added to a black 96 well plate (PerkinElmer) then 10 µL of JC-1 was added and incubated at 26 °C for 30 min. Analysis for the mean green and red fluorescence intensity was done using an Enspire microplate reader (PerkinElmer, Waltham, MA, USA) after 30 minutes. As well as images were taken on an EVOS fluorescence microscope from the Advanced Microscopy Group (AMG). The staining pattern allows the identification of two groups in a cellular population: Live cells will show only red fluorescence; and cells with low mitochondrial potential, (undergoing PCD) will show a higher level of green and red fluorescence.

[8] = test system: Acanthamoeba Neff; assay: Intracellular ROS production, CellROX Deep Red staining; type: cell-based, Acanthamoeba castellanii; details: treated with IC90, 24 h, vs negative control
Procedure: The generation of intracellular ROS was detected using the CellROX® Deep Red fluorescent probe (Invitrogen). The cells were treated with IC90 of both 5 and 7 for 24 h and exposed to CellROX® Deep Red (5 μM, 30 min) at 26 °C in the dark.

[9] = Solubility (comparison in words); type: physicochemical; details: compared to the origin compound 1 (ursolic acid)

IC50 [1] [µM]	IC50 ([2]; Acanthamoeba griffini) [µM]	IC90 [1] [µM]	solubility [9]	IC50 [2] [µM]	Structure (SMILES)	CC50 at 24 h [3] [µM]	cysticidal effect [4]	chromatin condensation (Hoechst 33342 stain) [5]	Propidium Iodide (PI) stain [5]	effect on morphology of murine macrophages [6]	mitochondrial membrane potential, JC-1 imaging [7]	decrease of mitochondrial membrane potential (ΔΨm) [7] [%]	reactive oxygen species (ROS) levels [8]
37.1 ± 1.3	9.1 ± 1	–	–	–	COC(=O)[C@]12CC[C@@H](C)[C@H](C)C1C1=CCC3[C@@]4(C)CC[C@H](OC(C)=O)C(C)(C)C4CC[C@@]3(C)[C@]1(C)CC2 (some centres unmarked) [Compound 6]	> 100	–	–	–	–	–	–	–
22.7 ± 1.4	6.9 ± 1.5	86	higher than the origin compound 1	–	COC(=O)[C@]12CC[C@@H](C)[C@H](C)C1C1=CCC3[C@@]4(C)CC[C@H](OC)C(C)(C)C4CC[C@@]3(C)[C@]1(C)CC2 (some centres unmarked) [Compound 5]	> 100	dose-dependent cysticidal effect	induced chromatin condensation	did not stain	did not affect the morphology	depolarize the mitochondrial membrane potential	49.0	increased
21.4 ± 1.3	6.7 ± 1.8	75	higher than the origin compound 1	–	COC(=O)[C@]12CC[C@@H](C)[C@H](C)C1C1=CCC3[C@@]4(C)CC[C@H](OC(=O)c5ccc([N+](=O)[O-])cc5)C(C)(C)C4CC[C@@]3(C)[C@]1(C)CC2 (stereo partly drawn) [Compound 7, 3β-(p-nitrobenzoyloxy)-urs-12-en-28-oic acid methyl ester]	> 100	dose-dependent cysticidal effect	induced chromatin condensation	did not stain	–	depolarize the mitochondrial membrane potential	35.0	increased
24.2 ± 0.3	11.1 ± 0.8	–	–	–	CC(=O)O[C@H]1CC[C@@]2(C)C(CC[C@]3(C)C2CC=C2C4[C@@H](C)[C@H](C)CC[C@]4(C(=O)O)CC[C@]23C)C1(C)C (some centres unmarked) [Compound 2]	93.2 ± 7.2	–	–	–	–	–	–	–
40 ± 2.7	15.3	–	–	15.2 ± 0.3	C[C@H]1[C@H](C)CC[C@]2(C(=O)O)CC[C@]3(C)C(=CC[C@@H]4[C@@]5(C)CC[C@H](O)C(C)(C)[C@@H]5CC[C@]43C)[C@H]12 [Compound 1, Ursolic acid]	17.7 ± 3.3	–	–	–	–	–	–	–
34.9 ± 1.5	10.2 ± 0.5	–	–	–	C[C@@H]1CC[C@]2(C(=O)O)CC[C@]3(C)C(=CCC4[C@@]5(C)CCC(=O)C(C)(C)C5CC[C@]43C)C2[C@H]1C (some centres unmarked) [Compound 3]	> 100	–	–	–	–	–	–	–
–	3.73 ± 0.98	–	–	–	[H]/N=C(\N/C(=N/[H])NCCCCCCNC(=N)NC(=N)Nc1ccc(Cl)cc1)Nc1ccc(Cl)cc1 [Chlorhexidine, reference compound]	7.4 ± 0.39	–	–	–	–	–	–	–
33.5 ± 2.1	11.5 ± 0.8	–	–	–	COC(=O)[C@]12CC[C@@H](C)[C@H](C)C1C1=CCC3[C@@]4(C)CC[C@H](OC(=O)c5ccccc5)C(C)(C)C4CC[C@@]3(C)[C@]1(C)CC2 (some centres unmarked) [Compound 8]	> 100	–	–	–	–	–	–	–
21.9 ± 0.9	8.7 ± 0.4	–	–	–	COC(=O)[C@]12CC[C@@H](C)[C@H](C)C1C1=CCC3[C@@]4(C)CC[C@H](O)C(C)(C)C4CC[C@@]3(C)[C@]1(C)CC2 (some centres unmarked) [Compound 4]	26.3 ± 1.7	–	–	–	–	–	–	–
